# Data published in the NIST ThermoML archive (doi:10.1016/j.fluid.2014.06.021).
# ± gives the expanded uncertainty stated by the source.
# Assay: activity coefficient (dimensionless); of the first substance listed, at infinite dilution; xn = mol fraction of the nth substance listed
# Conditions: 101.33 kPa, Liquid, Chromatography, x1 = 0
Structure (SMILES),activity coefficient (323.15 K),activity coefficient (333.15 K),activity coefficient (343.15 K)
CCCCCCCCCCCCC [tridecane] + C[n+]1ccn(CCCCS(=O)(=O)O)c1.O=S(=O)([O-])O,1540 ± 110,1410 ± 97,1350 ± 93
"Cc1ccccc1C [1,2-dimethylbenzene] + C[n+]1ccn(CCCCS(=O)(=O)O)c1.O=S(=O)([N-]S(=O)(=O)C(F)(F)F)C(F)(F)F",4.39 ± 0.3,4.64 ± 0.32,4.8 ± 0.3
CC#N [acetonitrile] + C[n+]1ccn(CCCCS(=O)(=O)O)c1.O=S(=O)([O-])C(F)(F)F,0.68 ± 0.05,0.67 ± 0.05,0.68 ± 0.05
CCc1ccccc1 [ethylbenzene] + C[n+]1ccn(CCCCS(=O)(=O)O)c1.O=S(=O)([N-]S(=O)(=O)C(F)(F)F)C(F)(F)F,5.37 ± 0.37,5.79 ± 0.39,5.8 ± 0.4
ClC(Cl)(Cl)Cl [tetrachloromethane] + C[n+]1ccn(CCCCS(=O)(=O)O)c1.O=S(=O)([N-]S(=O)(=O)C(F)(F)F)C(F)(F)F,7.71 ± 0.53,7.99 ± 0.54,8.1 ± 0.6
CCCCO [butan-1-ol] + C[n+]1ccn(CCCCS(=O)(=O)O)c1.O=S(=O)([N-]S(=O)(=O)C(F)(F)F)C(F)(F)F,–,0.19 ± 0.03,0.23 ± 0.03
CCCCCCCCCCC [undecane] + C[n+]1ccn(CCCCS(=O)(=O)O)c1.O=S(=O)([N-]S(=O)(=O)C(F)(F)F)C(F)(F)F,515 ± 35,448 ± 31,425 ± 29
CCC[N+](=O)[O-] [1-nitropropane] + C[n+]1ccn(CCCCS(=O)(=O)O)c1.O=S(=O)([O-])C(F)(F)F,1.84 ± 0.12,1.8 ± 0.12,1.77 ± 0.12
C[N+](=O)[O-] [nitromethane] + C[n+]1ccn(CCCCS(=O)(=O)O)c1.O=S(=O)([O-])C(F)(F)F,0.72 ± 0.05,0.71 ± 0.05,0.71 ± 0.05
CC#N [acetonitrile] + C[n+]1ccn(CCCCS(=O)(=O)O)c1.O=S(=O)([N-]S(=O)(=O)C(F)(F)F)C(F)(F)F,0.4 ± 0.1,0.42 ± 0.04,0.45 ± 0.04
Cc1ccccc1 [toluene] + C[n+]1ccn(CCCCS(=O)(=O)O)c1.O=S(=O)([N-]S(=O)(=O)C(F)(F)F)C(F)(F)F,3.1 ± 0.2,3.28 ± 0.22,3.31 ± 0.23
CCCCCCCCCC [decane] + C[n+]1ccn(CCCCS(=O)(=O)O)c1.O=S(=O)([N-]S(=O)(=O)C(F)(F)F)C(F)(F)F,371 ± 26,336 ± 23,281 ± 19
CCCC(C)=O [pentan-2-one] + C[n+]1ccn(CCCCS(=O)(=O)O)c1.O=S(=O)([N-]S(=O)(=O)C(F)(F)F)C(F)(F)F,0.42 ± 0.04,0.52 ± 0.04,0.64 ± 0.04
"Cc1ccccc1C [1,2-dimethylbenzene] + C[n+]1ccn(CCCCS(=O)(=O)O)c1.O=S(=O)([O-])O",43.8 ± 3,41.3 ± 2.8,40.8 ± 2.8
ClC(Cl)Cl [trichloromethane] + C[n+]1ccn(CCCCS(=O)(=O)O)c1.O=S(=O)([N-]S(=O)(=O)C(F)(F)F)C(F)(F)F,1.81 ± 0.12,1.83 ± 0.12,1.86 ± 0.13
ClCCl [dichloromethane] + C[n+]1ccn(CCCCS(=O)(=O)O)c1.O=S(=O)([N-]S(=O)(=O)C(F)(F)F)C(F)(F)F,1.08 ± 0.07,1.18 ± 0.08,1.28 ± 0.08
CC(C)O [propan-2-ol] + C[n+]1ccn(CCCCS(=O)(=O)O)c1.O=S(=O)([N-]S(=O)(=O)C(F)(F)F)C(F)(F)F,–,0.09 ± 0.03,0.11 ± 0.03
CCC(=O)CC [pentan-3-one] + C[n+]1ccn(CCCCS(=O)(=O)O)c1.O=S(=O)([N-]S(=O)(=O)C(F)(F)F)C(F)(F)F,0.54 ± 0.04,0.64 ± 0.04,0.77 ± 0.05
C#CCCCC [1-hexyne] + C[n+]1ccn(CCCCS(=O)(=O)O)c1.O=S(=O)([O-])C(F)(F)F,15.5 ± 1.1,14.4 ± 0.99,13.5 ± 0.92
ClC(Cl)Cl [trichloromethane] + C[n+]1ccn(CCCCS(=O)(=O)O)c1.O=S(=O)([O-])O,6.65 ± 0.45,6.73 ± 0.46,6.84 ± 0.47
Cc1ccccc1 [toluene] + C[n+]1ccn(CCCCS(=O)(=O)O)c1.O=S(=O)([O-])O,28.3 ± 1.9,26.6 ± 1.8,24.9 ± 1.7
C1CCCCCC1 [cycloheptane] + C[n+]1ccn(CCCCS(=O)(=O)O)c1.O=S(=O)([O-])C(F)(F)F,225 ± 15,270 ± 19,287 ± 20
CCCCCCCCCCCCCC [tetradecane] + C[n+]1ccn(CCCCS(=O)(=O)O)c1.O=S(=O)([O-])O,1910 ± 130,1750 ± 120,1680 ± 120
